Literature values as cited in patent US20140134224A1, “STABLE COMPOSITION OF HOCI, A PROCESS FOR ITS PRODUCTION AND USES THEREOF” (priority 2011, published 2014).
Like-named read-outs stand apart in the source and are kept apart here.

Tests used:
[1] = tested on: B. metiens spores; conditions: 25 ppm available chlorine
[2] = unstabilised HOCl solutions of the prior art
[3] = Kapoor 1968

Row | SMILES | time taken to produce a 99% kill of spores ([1]; pH 6) [min] | time taken to produce a 99% kill of spores ([1]; pH 7) [min] | time taken to produce a 99% kill of spores ([1]; pH 8) [min] | time taken to produce a 99% kill of spores ([1]; pH 9) [min] | time taken to produce a 99% kill of spores ([1]; pH 9.35) [min] | time taken to produce a 99% kill of spores ([1]; pH 10) [min] | time taken to produce a 99% kill of spores ([1]; pH 12.86) [min] | half-life [2] | times less effective than hypochlorous acid as a disinfectant [3]
1 | OCl [HOCl, Hypochlorous (or hydrochlorous) acid] | 2.5 | 3.6 | 5 | 19.5 | 35.5 | 131 | 465 | around 48 hours | –
2 | OCl [hypochlorite ion, hypochlorite] | – | – | – | – | – | – | – | – | up to 120 times
